Molecular target: T1, Kinase domain of human FAK (Homo sapiens, UniProt Q05397, P410G)
T1 construct: Kinase domain of human FAK (aa 410-689, hFAK-KD) was expressed; 6xHis (N); made in house; host or cells: Sf9 insect cells (baculovirus, pVL1392)
Test: ELISA-based in vitro kinase assay
Assay type: biochemical
Settings: poly-Glu-Tyr substrate, 1 h at 30°C
Protocol: Kinase domain of human FAK (aa 410-689, hFAK-KD) was expressed with an amino-terminal 6xHis-tag and a carboxy-terminal Nef epitope-tag. FAK residue 410 was changed from proline to glycine. Expression of the fusion protein was performed in Sf9 insect cells using the pVL1392 transfer vector and the BacuIoGold Transfection Kit (BD Biosciences, San Diego, USA). Cells were lysed in Sf9 lysis buffer (0.33% Tween20, 1 mM EDTA, 500 mM NaCl, 100 µM PMSF, 1 mM β-Mercaptoethanol in 25 mM TrisHCl, pH 7.5) for 20 min at 4°C. Subsequently, the lysate was cleared by centrifugation and hFAK-KD was purified from the soluble fraction under native conditions by FPLC using a HisTrapFFcrude 1 mL column (GE Healthcare, Munich, Germany)
A microtiter plate was coated with 2 µg/well of poly(Glu:Tyr) (4:1) copolymer (Sigma-Aldrich, Steinheim, Germany) as artificial FAK substrate and blocked with 2% BSA in PBS with 0.01% Tween20. Purified hFAK-KD together with 100 µM ATP were added in kinase buffer (125 mM NaCl, 48 mM MgCl2, 50 mM HEPES, pH 7.5) in presence of various concentrations of test compounds and incubated for 1 h at 30°C. The reaction was stopped by the addition of EDTA and wells were extensively washed with 0.05% Tween20 in PBS. Phosphorylated substrate was detected by monoclonal anti-phosphotyrosine antibody followed by peroxidasecoupled goat anti-mouse antibody. […] The absorbance was measured at 450 nm.

T1 sequence (Q05397 410-689 P410G): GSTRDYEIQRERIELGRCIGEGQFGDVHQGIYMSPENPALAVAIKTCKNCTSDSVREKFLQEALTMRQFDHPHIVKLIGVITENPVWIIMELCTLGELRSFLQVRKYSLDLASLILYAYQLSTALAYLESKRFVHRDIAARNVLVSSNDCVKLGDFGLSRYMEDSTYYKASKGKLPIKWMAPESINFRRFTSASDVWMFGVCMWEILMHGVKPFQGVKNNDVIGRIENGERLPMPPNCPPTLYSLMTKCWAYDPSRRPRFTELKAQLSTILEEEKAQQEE

in vitro activity of purified FAK kinase domain (FAK substrate phosphorylation): not altered
SMILES: O=[N+]([O-])C=Cc1cc(Br)cs1 [FootLocker 1, 4-bromo-2-(2-nitrovinyl)thiophene]
